Broadly, the IC50 is the concentration at which inhibition is half-maximal. Read a high IC50 as weaker potency in that assay.

Where a name gives a salt, the structure may show the parent alone.

One data set addresses human ENPP2 (Homo sapiens (Human), UniProt Q13822). Nature of the data set: Measurement of human ENPP2 inhibitory activity. The class given is biochemical. To be noted: human ENPP2, 16:0-LPC substrate. The procedure:
10 μL of a test compound solution (10% dimethyl sulfoxide) at each concentration and 40 μL of a 5 μg/mL human ENPP2 solution (buffer A: 100 mmol/L Tris-HCl (pH 9.0), 500 mmol/L NaCl, 5 mmol/L MgCl2, 0.05% Triton X-100) were mixed, 50 μL of a 2 mmol/L 16:0-lysophosphatidylcholine (LPC) solution (buffer A) was further added to react at 37° C. for 24 hours. Subsequently, to 10 ill, of the reaction solution was added 90 III, of a measurement buffer (0.5 mmol/L aminoantipyrine, 0.3 mmol/L N-ethyl-N-(2-hydroxy-3-sulfopropyl)-3-methylaniline, 1 U/mL peroxidase, 3 U/mL choline oxidase, 100 mmol/L Tris-HCl (pH 8.5), 5 mmol/L CaCl2) to react at 37° C. for 20 minutes, and spectrophotometric determination was performed at 555 nm.
Using a standard curve, a choline production amount (enzyme activity) in each test compound was calculated, and the inhibitory activity rate of each test compound was calculated, wherein the enzyme activity in a positive control to which a test compound is not added, was a 0% inhibition rate, and the enzyme activity in a negative control to which a test compound and human ENPP2 are not added, were 100% inhibition. Further, concerning the present compounds shown in Table 3, an IC50 value was calculated from inhibitory activity rate at each concentration.
Molecule `CC(C)(CCCC(=O)N1CCc2c(n(Cc3cnc(C(F)(F)F)s3)c3ncccc23)C1)C(=O)O` [Example 3(50), 2,2-dimethyl-6-oxo-6-(9-{[2-(trifluoromethyl)-1,3-thiazol-5-yl]methyl}-5,6,8,9-tetrahydro-7H-pyrido[4′,3′:4,5]pyrrolo[2,3-b]pyridin-7-yl)hexanoic acid] yielded a 50% inhibitory concentration (IC50) of 4.5 nM. `CC1(C)[C@@H](CC(=O)N2CCc3c(n(Cc4ccc(C(F)(F)F)cc4)c4ncccc34)C2)CC[C@@]1(C)C(=O)O` [Example 6(53), (1R,3R)-1,2,2-trimethyl-3-(2-oxo-2-{9-[4-(trifluoromethyl)benzyl]-5,6,8,9-tetrahydro-7H-pyrido[4′,3′:4,5]pyrrolo[2,3-b]pyridin-7-yl}ethyl)cyclopentanecarboxylic acid] returned an IC50 of 10 nM.

Take `Cc1nc(C(F)(F)F)sc1Cn1c2c(c3cccnc31)CCN(C(=O)C[C@H]1CC[C@@](C)(C(=O)O)C1(C)C)C2` [Example 6(63), (1R,3R)-1,2,2-trimethyl-3-[2-(9-{[4-methyl-2-(trifluoromethyl)-1,3-thiazol-5-yl]methyl}-5,6,8,9-tetrahydro-7H-pyrido[4′,3′:4,5]pyrrolo[2,3-b]pyridin-7-yl)-2-oxoethyl]cyclopentanecarboxylic acid]: the IC50 was determined as 8 nM.

Turning to `O=C(CC12CCC(C(=O)O)(CC1)C2)N1CCc2c(n(Cc3cnc(C(F)(F)F)s3)c3ncccc23)C1` [Example 6(65), 4-[2-oxo-2-(9-{[2-(trifluoromethyl)-1,3-thiazol-5-yl]methyl}-5,6,8,9-tetrahydro-7H-pyrido[4′,3′:4,5]pyrrolo[2,3-b]pyridin-7-yl)ethyl]bicyclo[2.2.1]heptane-1-carboxylic acid], the IC50 stood at 5.1 nM. `O=C(O)C1CCN(CC(=O)N2CCc3c(n(Cc4ccc(OC(F)(F)F)cc4)c4ncccc34)C2)CC1` [Example 7(3), 1-(2-oxo-2-{9-[4-(trifluoromethoxy)benzyl]-5,6,8,9-tetrahydro-7H-pyrido[4′,3′:4,5]pyrrolo[2,3-b]pyridin-7-yl}ethyl)-4-piperidinecarboxylic acid hydrochloride] came in with an IC50 of 28 nM.

`C[C@@H]1CN(CC(=O)N2CCc3c(n(Cc4ccc(C(F)(F)F)s4)c4ncccc34)C2)C[C@H](C)N1CC(=O)O` [Example 7(41), rel-{(2R,6S)-2,6-dimethyl-4-[2-oxo-2-(9-{[5-(trifluoromethyl)-2-thienyl]methyl}-5,6,8,9-tetrahydro-7H-pyrido[4′,3′:4,5]pyrrolo[2,3-b]pyridin-7-yl)ethyl]-1-piperazinyl}acetic acid dihydrochloride] displayed an IC50 of 4.9 nM. In the case of `O=C(O)C1=CCN(CC(=O)N2CCc3c(n(Cc4ccc(C(F)(F)F)s4)c4ncccc34)C2)CC1` [Example 7(45), 1-[2-oxo-2-(9-{[5-(trifluoromethyl)-2-thienyl]methyl}-5,6,8,9-tetrahydro-7H-pyrido[4′,3′:4,5]pyrrolo[2,3-b]pyridin-7-yl)ethyl]-1,2,3,6-tetrahydro-4-pyridinecarboxylic acid], half-maximal inhibition (IC50) was put at 16 nM.

Turning to `O=C(CCCC1(C(=O)O)CC1)N1CCc2c(n(Cc3ccc(C(F)(F)F)s3)c3ncccc23)C1` [Example 9(1), 1-[4-oxo-4-(9-{[5-(trifluoromethyl)-2-thienyl]methyl}-5,6,8,9-tetrahydro-7H-pyrido[4′,3′:4,5]pyrrolo[2,3-b]pyridin-7-yl)butyl]cyclopropanecarboxylic acid], the half-maximal inhibitory concentration (IC50) came out at 12 nM. Turning to `C[C@]1(C(=O)O)CC[C@H](CC(=O)N2CCc3c(n(Cc4ccc(C(F)(F)F)s4)c4ncccc34)C2)CC1` [Example 10(2), trans-1-methyl-4-[2-oxo-2-(9-{[5-(trifluoromethyl)-2-thienyl]methyl}-5,6,8,9-tetrahydro-7H-pyrido[4′,3′:4,5]pyrrolo[2,3-b]pyridin-7-yl)ethyl]cyclohexanecarboxylic acid], the IC50 came out at 17 nM. For `C[C@]1(C(=O)O)CC[C@H](CC(=O)N2CCc3c(n(Cc4cnc(C(F)(F)F)s4)c4ncccc34)C2)CC1` [Example 10(5), trans-1-methyl-4-[2-oxo-2-(9-{[2-(trifluoromethyl)-1,3-thiazol-5-yl]methyl}-5,6,8,9-tetrahydro-7H-pyrido[4′,3′:4,5]pyrrolo[2,3-b]pyridin-7-yl)ethyl]cyclohexanecarboxylic acid], the IC50 came to 3.8 nM. This IC50 is about 4.5-fold lower than that of the molecule before. For the molecule `COc1cc(CC(=O)N2CCc3c(n(Cc4ccc(OC(F)(F)F)cc4)c4ncccc34)C2)ccc1C(=O)O` [Example 11(12), 2-methoxy-4-(2-oxo-2-{9-[4-(trifluoromethoxy)benzyl]-5,6,8,9-tetrahydro-7H-pyrido[4′,3′:4,5]pyrrolo[2,3-b]pyridin-7-yl}ethyl)benzoic acid], the IC50 stood at 5.4 nM. Take `COc1cc(CC(=O)N2CCc3c(n(Cc4sc(C(F)(F)F)nc4C)c4ncccc34)C2)cc(OC)c1C(=O)O` [Example 11(24), 2,6-dimethoxy-4-[2-(9-{[4-methyl-2-(trifluoromethyl)-1,3-thiazol-5-yl]methyl}-5,6,8,9-tetrahydro-7H-pyrido[4′,3′:4,5]pyrrolo[2,3-b]pyridin-7-yl)-2-oxoethyl]benzoic acid]: 8.4 nM corresponded to half-maximal inhibition (IC50).

The molecule `O=C(C[C@H]1CC[C@H](C(=O)O)CC1)N1CCc2c(n(Cc3ccc(F)cc3F)c3ncccc23)C1` [Reference Example 2, trans-4-{2-[9-(2,4-difluorobenzyl)-5,6,8,9-tetrahydro-7H-pyrido[4′,3′:4,5]pyrrolo[2,3-b]pyridin-7-yl}-2-oxoethyl]cyclohexanecarboxylic acid, reference compound] registered an IC50 of 14 nM. Compared with the last molecule, the IC50 is about 1.7-fold higher.

The next data set has as its system SD male rat. Nature of the data set: Measurement of urethra internal pressure in rat under anesthesia. It counts as in vivo. To be noted: dose 1.0 mg/kg intravenously. The text has this:
A SD male rat (Crl: CD(SD), Charles River Laboratories Japan, Inc., 7-10 weeks old) which has fasted since the evening of the day before this experiment was anesthetized by subcutaneous administration of 1.5 g/kg urethane at a back of a neck. After an abdominal part was median incised, a catheter for duodenum was inserted within lumen of duodenum and then tied down by string. A lower abdominal part was median incised, and a urethra was ligated at around pubis. A urethral catheter for measuring a urethra internal pressure, equipped with a collar at a tip and filled with a physiological saline was inserted into a urethra through an incised bladder top, and ligation-fixed at a bladder neck part. The urethral catheter was connected to a pressure transducer (manufactured by Nihon Kohden Corporation), and a urethra internal pressure was measured. […] A urethra internal pressure reduction rate (%) was calculated based on a urethra internal pressure after compound administration, wherein a value obtained by subtracting a postmorten basline value (minimum value of urethra internal pressure for 10 minutes after administration of somnopentyl) from a urethra internal pressure value before compound administration (0 minute) was 100%.
`CCc1cccc(Cn2c3c(c4cccnc42)CCN(C(=O)CC24CCC(C(=O)O)(CC2)C4)C3)c1` [Example 6(72), 4-{2-[9-(3-ethylbenzyl)-5,6,8,9-tetrahydro-7H-pyrido[4′,3′:4,5]pyrrolo[2,3-b]pyridin-7-yl]-2-oxoethyl}bicyclo[2.2.1]heptane-1-carboxylic acid]: the “urethra internal pressure reduction rate” value stood at 25%.

The next data set relates to Crl:CD (Sparague-Dawley) male rat. Nature of the data set: Measurement of blood pressure, heart rate in rat under wakefulness. To be noted: conscious rat, 100, 300 mg/kg forcedly orally administered, up to 180 minutes. The class given is in vivo. Here is the method: A Crl:CD (Sparague-Dawley) male rat (Charles River Laboratories Japan, Inc., 8 weeks old) was anesthetized by inhalation of isoflurane. A catheter (INTRAMEDIC POLYETHYLENE Tubing PE50, CLAY ADAMS) was inserted and indwelled in a femoral artery and another end was exposed from dorsal skin. The rat was placed in a rearing cage for blood pressure measurement. After elapse of 2 hours or more from the insertion of the catheter, each of the compound of Reference Example 2 and the compound of Example 6(72) (dose: 100, 300 mg/kg) was forcedly orally administered, and blood pressure was measured under no anesthesia and no restraint. The blood pressure was measured by connecting the catheter inserted in the femoral artery and a blood pressure transducer (DX-360, Nihon Kohden Corporation) and passing through an amplifier for blood pressure measurement (Coupler•Amplifier PP-101HAP-101H, Nihon Kohden Corporation). Blood pressure signals were captured into a data acquisition analysis system (HEM 3.5, NOTOCORD SYSTEM S.A.) through a polygraph system (PEG-1000, Nihon Kohden Corporation) to measure blood pressure (systolic pressure, diastolic pressure, mean blood pressure) and heart rate (measured from blood pressure pulse wave). […] The data were accumulated as measured values at respective time points and % variation values in which each value before administration was taken as 100.
As for `CCc1cccc(Cn2c3c(c4cccnc42)CCN(C(=O)CC24CCC(C(=O)O)(CC2)C4)C3)c1` [Example 6(72), 4-{2-[9-(3-ethylbenzyl)-5,6,8,9-tetrahydro-7H-pyrido[4′,3′:4,5]pyrrolo[2,3-b]pyridin-7-yl]-2-oxoethyl}bicyclo[2.2.1]heptane-1-carboxylic acid], the “influence on a circulatory organ (blood pressure, heart rate)” value is “no influence of the compound of Example 6(72) that is a compound of the present invention was observed on a circulatory organ”. Take `O=C(C[C@H]1CC[C@H](C(=O)O)CC1)N1CCc2c(n(Cc3ccc(F)cc3F)c3ncccc23)C1` [Reference Example 2, trans-4-{2-[9-(2,4-difluorobenzyl)-5,6,8,9-tetrahydro-7H-pyrido[4′,3′:4,5]pyrrolo[2,3-b]pyridin-7-yl}-2-oxoethyl]cyclohexanecarboxylic acid, reference compound]: the “influence on a circulatory organ (blood pressure, heart rate)” value is given as “An influence of the compound of Reference Example 2 on a circulatory organ was observed”.

For the origin of these results see patent publication US9353113B2, “Tetrahydrocarboline derivative” (ONO PHARMACEUTICAL CO., LTD., priority 2011, dated 2016).
